Data taken from US12338256B2, “Aza-tetracyclic oxazepine compounds and uses thereof” (Genentech, Inc., priority 2022, dated 2025).

Tests used:
[1] = system: HPAC (homozygous mutant KRAS G12D human pancreatic cell line); assay: KRAS 3D-Cell Proliferation Assay, HPAC (Example 503); assay type: cell-based; settings: Homo sapiens, HPAC, 168 h, HPAC 3D culture, 7 days, CellTiter-Glo 3D; read-out: Prolif HPAC 3D ATP IC50
Outline: (§1)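 KRAS G12D homozygous pancreatic lines and KRAS wild-type lung lines grown as 3D cultures in ultra-low-attachment wells in RPMI-1640/10% FBS, dosed after overnight with compound dilution series (0.3% DMSO final) for 7 days at 37 °C. ATP read by CellTiter-Glo 3D luminescence; IC50 from 4-parameter Hill fit, normalized to DMSO and 1 μM staurosporine.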

[2] = system: H1975 (KRAS wild type human lung adenocarcinoma cell line); assay: KRAS 3D-Cell Proliferation Assay, H1975 (Example 503); assay type: cell-based; settings: Homo sapiens, NCI-H1975, 168 h, H1975 3D culture, 7 days, CellTiter-Glo 3D; read-out: Prolif H1975 3D ATP IC50
Outline: as §1

| Compound | IC50 [1] | IC50 [2] |
| --- | --- | --- |
| Cc1nc(N)cc(-c2nc3c4c(nc(OCC5(CN6CC7(CCC7(F)F)C6)CC5)nc4c2F)N2C[C@H]4CC[C@H](N4)[C@H]2[C@H](C)O3)c1C(F)(F)F [Compound 285, 4-((5S,5aS,6S,9R)-12-((1-((5,5-difluoro-2-azaspiro[3.3]heptan-2-yl)methyl)cyclopropyl)methoxy)-1-fluoro-5-methyl-5a,6,7,8,9,10-hexahydro-5H-4-oxa-3,10a,11,13,14-pentaaza[6,9]methanonaphtho[1,8-ab]heptalene-2-yl)-6-methyl-5-(trifluoromethyl)pyridin-2-amine] | 3.05 nM | 608 nM |
| Cc1cc(N)c(F)c(-c2nc3c4c(nc(OC[C@@H]5CC[C@H]6COCCN65)nc4c2F)N2C[C@H]4CC[C@H](N4)[C@H]2[C@H](C)O3)c1C(F)(F)C(F)(F)F [Compound 100, 2-Fluoro-3-((5S,5aS,6S,9R)-1-fluoro-12-(((6S,8aS)-hexahydro-1H-pyrrolo[2,1-c][1,4]oxazin-6-yl)methoxy)-5-methyl-5a,6,7,8,9,10-hexahydro-5H-4-oxa-3,10a,11,13,14-pentaaza-6,9-methanonaphtho[1,8-ab]heptalen-2-yl)-5-methyl-4-(perfluoroethyl)aniline] | 21.8 nM | 3970 nM |
| C[C@@H]1Oc2nc(-c3cc(N)c(F)cc3C(C)(F)F)c(F)c3nc(OC[C@@]45CCCN4C[C@H](F)C5)nc(c23)N2C[C@H]3CC[C@H](N3)[C@@H]12 [Compound 73, 4-(1,1-difluoroethyl)-2-fluoro-5-((5S,5aS,6S,9R)-1-fluoro-12-(((2R,7aS)-2-fluorotetrahydro-1H-pyrrolizin-7a(5H)-yl)methoxy)-5-methyl-5a,6,7,8,9,10-hexahydro-5H-4-oxa-3,10a,11,13,14-pentaaza-6,9-methanonaphtho[1,8-ab]heptalen-2-yl)aniline] | 16.3 nM | 4090 nM |
| Cc1c(F)c(N)cc(-c2nc3c4c(nc(OCC5(CC(F)F)CCCN5C)nc4c2F)N2CC4CCC(N4)C2C(C)O3)c1C(F)(F)F (single isomer, unassigned) [150 (isomer 2)] | 23.9 nM | 2850 nM |
| COC1(C)CN(CC2(COc3nc4c5c(nc(-c6cc(N)nc(C)c6C(F)(F)F)c(F)c5n3)O[C@@H](C)[C@@H]3[C@@H]5CC[C@H](CN43)N5)CC2)C1 [Compound 273, 4-((5S,5aS,6S,9R)-1-fluoro-12-((1-((3-methoxy-3-methylazetidin-1-yl)methyl)cyclopropyl)methoxy)-5-methyl-5a,6,7,8,9,10-hexahydro-5H-4-oxa-3,10a,11,13,14-pentaaza-6,9-methanonaphtho[1,8-ab]heptalene-2-yl)-6-methyl-5-(trifluoromethyl)pyridin-2-amine] | 6.53 nM | 3190 nM |
| Cc1c(F)c(N)c(F)c(-c2nc3c4c(nc(OC[C@@]56CCCN5C[C@H](F)C6)nc4c2F)N2C[C@H]4CC[C@H](N4)[C@H]2[C@H](C)O3)c1CC(F)F [Compound 175, 4-(2,2-Difluoroethyl)-2,6-difluoro-3-((5S,5aS,6S,9R)-1-fluoro-12-(((2R,7aS)-2-fluorotetrahydro-1H-pyrrolizin-7a(5H)-yl)methoxy)-5-methyl-5a,6,7,8,9,10-hexahydro-5H-4-oxa-3,10a,11,13,14-pentaaza-6,9-methanonaphtho[1,8-ab]heptalen-2-yl)-5-methylaniline] | 19.6 nM | 2340 nM |
| Cc1nc(N)cc(-c2nc3c4c(nc(OCC5(CN6CCCC67CCOC7)CC5)nc4c2F)N2C[C@H]4CC[C@H](N4)[C@H]2[C@H](C)O3)c1C(F)(F)F (stereo partly drawn) [Compound 282, 4-((5S,5aS,6S,9R)-12-((1-((7-oxa-1-azaspiro[4.4]nonan-1-yl)methyl)cyclopropyl)methoxy)-1-fluoro-5-methyl-5a,6,7,8,9,10-hexahydro-5H-4-oxa-3,10a,11,13,14-pentaaza[6,9]methanonaphtho[1,8-ab]heptalene-2-yl)-6-methyl-5-(trifluoromethyl)pyridin-2-amine] | 3.96 nM | 2450 nM |
| Cc1c(F)c(N)cc(-c2nc3c4c(nc(OC[C@H](F)CN5CC6(COC6)C5)nc4c2F)N2C[C@H]4CC[C@H](N4)[C@H]2[C@H](C)O3)c1C(F)(F)F [Compound 144] | 21.2 nM | 7510 nM |
| Cc1cc(N)cc(-c2nc3c4c(nc(OC[C@@H]5CC[C@H]6COCCN65)nc4c2F)N2C[C@H]4CC[C@H](N4)[C@H]2[C@H](C)O3)c1C(F)(F)F [Compound 67, 3-((5S,5aS,6S,9R)-1-Fuoro-1-(((6S,8aS)-hexahydro-1H-pyrrolo[2,1-c][1,4]oxazin-6-yl)methoxy)-5-methyl-5a,6,7,8,9,10-hexahydro-5H-4-oxa-3,10a,11,13,14-pentaaza-6,9-methanonaphtho[1,8-ab]heptalen-2-yl)-5-methyl-4-(trifluoromethyl)aniline] | 2.79 nM | 639 nM |
| C[C@@H]1Oc2nc(-c3cc(N)c(F)c(F)c3C(F)(F)F)c(F)c3nc(OCC45CCN4CC(F)(F)C5)nc(c23)N2C[C@H]3CC[C@H](N3)[C@@H]12 (stereo partly drawn) [Compound 155, 5-((5S,5aS,6S,9R)-12-((3,3-difluoro-1-azabicyclo[3.2.0]heptan-5-yl)methoxy)-1-fluoro-5-methyl-5a,6,7,8,9,10-hexahydro-5H-4-oxa-3,10a,11,13,14-pentaaza-6,9-methanonaphtho[1,8-ab]heptalen-2-yl)-2,3-difluoro-4-(trifluoromethyl)aniline] | 8.84 nM | 4750 nM |
| Cc1c(F)c(N)cc(-c2nc3c4c(nc(OCC5(CN6CCO[C@H](CF)C6)CC5)nc4c2F)N2C[C@H]4CC[C@H](N4)[C@H]2[C@H](C)O3)c1C(F)(F)F [Compound 171, 2-Fluoro-5-((5S,5aS,6S,9R)-1-fluoro-12-((1-(((S)-2-(fluoromethyl)morpholino)methyl)cyclopropyl)methoxy)-5-methyl-5a,6,7,8,9,10-hexahydro-5H-4-oxa-3,10a,11,13,14-pentaaza-6,9-methanonaphtho[1,8-ab]heptalen-2-yl)-3-methyl-4-(trifluoromethyl)aniline] | 1.33 nM | 904 nM |
| Cc1c(F)c(N)cc(-c2nc3c4c(nc(OCC5(CN6CCO[C@@H](CF)C6)CC5)nc4c2F)N2C[C@H]4CC[C@H](N4)[C@H]2[C@H](C)O3)c1C(F)(F)F [Compound 172, 2-Fluoro-5-((5S,5aS,6S,9R)-1-fluoro-12-((1-(((R)-2-(fluoromethyl)morpholino)methyl)cyclopropyl)methoxy)-5-methyl-5a,6,7,8,9,10-hexahydro-5H-4-oxa-3,10a,11,13,14-pentaaza-6,9-methanonaphtho[1,8-ab]heptalen-2-yl)-3-methyl-4-(trifluoromethyl)aniline] | 1.72 nM | 864 nM |
| CCc1c(F)c(N)cc(-c2nc3c4c(nc(OC[C@@H]5CC[C@H]6COCCN65)nc4c2F)N2C[C@H]4CC[C@H](N4)[C@H]2[C@H](C)O3)c1C(F)(F)F [Compound 232, 3-Ethyl-2-fluoro-5-((5S,5aS,6S,9R)-1-fluoro-12-(((6S,8aS)-hexahydro-1H-pyrrolo[2,1-c][1,4]oxazin-6-yl)methoxy)-5-methyl-5a,6,7,8,9,10-hexahydro-5H-4-oxa-3,10a,11,13,14-pentaaza-6,9-methanonaphtho[1,8-ab]heptalen-2-yl)-4-(trifluoromethyl)aniline] | 77 nM | 10500 nM |
| C#Cc1c(F)ccc2cc(N)cc(-c3nc4c5c(nc(OC[C@]67CCN6CC(F)(F)C7)nc5c3F)N3C[C@H]5CC[C@H](N5)[C@H]3[C@H](C)O4)c12 [Compound 110, 4-((5S,5aS,6S,9R)-12-(((R)-3,3-Difluoro-1-azabicyclo[3.2.0]heptan-5-yl)methoxy)-1-fluoro-5-methyl-5a,6,7,8,9,10-hexahydro-5H-4-oxa-3,10a,11,13,14-pentaaza-6,9-methanonaphtho[1,8-ab]heptalen-2-yl)-5-ethynyl-6-fluoronaphthalen-2-amine] | 2.58 nM | 587 nM |
| Cc1c(F)c(N)nc(-c2nc3c4c(nc(OC[C@@]56CCCN5C[C@H](F)C6)nc4c2F)N2C[C@H]4CC[C@H](N4)[C@H]2[C@H](C)O3)c1C(F)(F)F [Compound 191, 3-Fluoro-6-((5S,5aS,6S,9R)-1-fluoro-12-(((2R,7aS)-2-fluorotetrahydro-1H-pyrrolizin-7a(5H)-yl)methoxy)-5-methyl-5a,6,7,8,9,10-hexahydro-5H-4-oxa-3,10a,11,13,14-pentaaza-6,9-methanonaphtho[1,8-ab]heptalen-2-yl)-4-methyl-5-(trifluoromethyl)pyridin-2-amine] | 29.6 nM | 1410 nM |
| C[C@@H]1Oc2nc(-c3cccc4sc(N)nc34)c(F)c3nc(OC[C@@]45CCCN4C[C@H](F)C5)nc(c23)N2C[C@H]3CC[C@H](N3)[C@@H]12 [Compound 116, 4-((5S,5aS,6S,9R)-1-fluoro-12-(((2R,7aS)-2-fluorotetrahydro-1H-pyrrolizin-7a(5H)-yl)methoxy)-5-methyl-5a,6,7,8,9,10-hexahydro-5H-4-oxa-3,10a,11,13,14-pentaaza-6,9-methanonaphtho[1,8-ab]heptalen-2-yl)benzo[d]thiazol-2-amine] | 513 nM | 20000 nM |
| Cc1c(F)c(O)cc(-c2nc3c4c(nc(OC[C@@]56CCCN5C[C@H](F)C6)nc4c2F)N2C[C@H]4CC[C@H](N4)[C@H]2[C@H](C)O3)c1C(F)(F)F [Compound 202, 2-Fluoro-5-((5S,5aS,6S,9R)-1-fluoro-12-(((2R,7aS)-2-fluorotetrahydro-1H-pyrrolizin-7a(5H)-yl)methoxy)-5-methyl-5a,6,7,8,9,10-hexahydro-5H-4-oxa-3,10a,11,13,14-pentaaza-6,9-methanonaphtho[1,8-ab]heptalen-2-yl)-3-methyl-4-(trifluoromethyl)phenol] | 2000 nM | 20000 nM |
| Cc1c(F)c(N)cc(-c2nc3c4c(nc(OC[C@@H](F)CN5CC6(COC6)C5)nc4c2F)N2C[C@H]4CC[C@H](N4)[C@H]2[C@H](C)O3)c1C(F)(F)F [Compound 145] | 68.7 nM | 5120 nM |
